No end group written: not given here.
Experiments:
[1] = system: HT-29 cells; test: Spontaneous IL-8 secretion from intestinal epithelial cells (ELISA); type: cell-based, human; set-up: IL-8 secretion Average O.D.: scale not given here; conditions: peptide 1 nM, 24 h at 37° C.; for IL-8 secretion Average O.D.: ELISA O.D. at 405 nm, medium alone 488 ± 8.5, background 71 ± 1.4; for IL-8 secretion % inhibition: spontaneous secretion
Description: Human colonic epithelial cell lines HT-29 (ATCC HTB38) and Caco-2 (ATCC […]) were obtained from the American Type Culture Collection (ATTC, Rockville, Md.). Cells were maintained in culture medium (DMEM supplemented with 10% cosmic calf serum (CSS), 2 mM glutamine, 100 U/ml penicillin, and 0.1 mg/ml streptomycin), at 37° C. and atmosphere of 5%, CO2. Cell viability was assessed using the standard MTT method.
Spontaneous or cytokine-induced secretion of IL-8 or IL-1β from intestinal epithelial cell. Test cells (HT-29 or Caco-2) were grown as confluent monolayers in 24-well tissue culture plates. […] When TNF-α was used, the peptides were added to the cells 1 hour prior to the addition of TNF-α. Following culture, the supernatants were harvested and analyzed for IL-8 or IL-1β secretion by ELISA using commercially available kits for IL-8 (Pharmingen) and IL-1β (Genzyme), according to the manufacturers' protocols.
The results in Table 1 show the O.D. readings of the ELISA assay (at 405 nm) as well as the percentage of inhibition of IL-8 secretion.

[2] = system: human T cells; test: IL-2-induced T cell adhesion to fibronectin (FN); type: cell-based; conditions: for concentration giving maximum inhibition of IL-2-induced T cell adhesion to FN / concentration giving maximum inhibition of IL-2-induced T cell adhesion to FN (molar) / inhibition of adhesion of IL-2-activated T cells to FN: IL-2 10 U/ml; for inhibition of adhesion of IL-2-activated T cells to FN: 30 min at 37° C., dose range; for anti-adhesive effect after removal of peptide prior to IL-2 activation: T cells pre-treated 1 pg/ml, washed, then IL-2 and FN-coated wells
Description: (§1) T cell adhesion assays. Human T cells were purified from the peripheral blood of healthy donors, and T cell adhesion to immobilized protein substrates was examined as follows: Human leukocytes were isolated on a Ficoll gradient, washed, and incubated (2 h, 37° C., 7.5% CO2, humidified atmosphere) on petri dishes. The non-adherent cells were then collected and incubated (1 h, 37° C., 7.5% CO2, humidified atmosphere) on nylon wool columns (Novamed Ltd., Jerusalem, Israel). Unbound cells were eluted from the columns by extensive washings. The resulting cell population was always >92% T cells. […] After 4-6 h at 37° C., the wells were washed and ^51[Cr]-labeled T cells were added to the wells, 10^5 cells/100 μl of adhesion medium (RPMI-1640 supplemented with 0.1% BSA, 1% sodium pyruvate, 1% HEPES buffer). The microtiter plates containing the cells were incubated (30 min, 37° C.) in a humidified, 7.5% CO2 atmosphere, and then washed. The adherent cells were lysed, and the resulting supernatants were removed and analyzed in a γ-counter. For each experimental group, the results were expressed as the mean percentage ±SD of bound T cells from quadruplicate wells.
The effect of synthetic peptides, with putative amino acid compositions corresponding to fractions 2 and 8, on IL-2-induced T cell adhesion to FN. […] These three peptides were synthesized, and their effects on IL-2-induced T cell adhesion to FN were studied. […] The inhibitory dose-response curves of Ile-Val-Leu and […](SEQ ID NO:1) are similar to those of the HPLC fractions 2 and 8, respectively, from which they were derived. […]

[3] = system: human T cells; test: IL-2-induced T cell adhesion to LN, CO-IV and FN after peptide pre-treatment; type: cell-based; conditions: pre-exposed to peptide 10 pg/ml, then IL-2 10 U/ml
Description: The T cells were then seeded onto microtiter wells that were pre-coated (1 μg/well) with the various ECM glycoproteins. T cell adhesion was measured 30 min later.
as §1
Ile-Val-Leu, Arg-Met-Leu-Thr (SEQ ID NO:2) and […](SEQ ID NO:1) inhibit T cell adhesion to LN, CO-IV and FN. The next experiment was designed and performed to verify that the three IL-2-derived peptides indeed affect T cell interactions with ECM glycoproteins other than FN. […] The treated cells were then added to microtiter wells coated with CO-IV, LN, and FN.

[4] = system: human T cells; test: T cell chemotaxis through FN-coated polycarbonate membranes; type: cell-based; conditions: peptide 1 pg/ml, FN-coated membrane; for inhibition of T cell migration toward IL-2: IL-2 10 U/ml in lower compartment, p<0.01; for inhibition of T cell chemotaxis toward MIP-1β: MIP-1β in lower compartment
Description: T cell migration towards the chemotactic sources was assessed after 2 hr. One experiment representative of four.
Chemotaxis assays. T cell chemotaxis was performed and analyzed as previously described (Ben-Baruch et al., 1997). Briefly, the migration of human T cells (0.5×10^6 cells in adhesion medium/well) was examined in a 48-well chemotaxis micro-chamber (Neuro-Probe Inc., Cabin John, M D). The two compartments of the micro-chambers were separated by a FN-coated polycarbonate filter (5 μm pore size; Osmonics Protein Products, Livemore, Calif.). […] After incubation (120 min, 37° C., in a humidified, 7.5% CO2 atmosphere); the filters were removed, fixed, and stained with a Diff-Quik staining kit Dade, Düdingen, Switzerland). The number of migrating T cells in five high-power fields (under 500× magnification; WILD Microscope, Heerbrugg, Switzerland) was evaluated. For each group, the results are expressed as the mean number of cells in one high-power field.
Immune cell migration is the outcome of a subtle biological equilibrium existing between adhesion and detachment events. Lymphocyte adhesion to the subendothelial ECM and subsequent migration are two active processes that can overlap, but are not mutually dependent events. Adhesion and migration may depend on the ability of the T cells to continuously integrate different pro- and anti-adhesive signals via their versatile receptors for ECM, chemokines, cytokines, and possibly, also antigenic moieties.

[5] = system: human T cells; test: T cell adhesion to FN induced by various activators; type: cell-based; conditions: for inhibition of T cell adhesion to FN induced by various stimulators: peptide 10 pg/ml, IL-2, IL-7, MIP-1β, PMA, 8A2 mAb, anti-CD3 mAb
Description: FIGS. 7A-7B show inhibition by pep2 (FIG. 7A) and pep1 (FIG. 7B) of T cell adhesion to FN, induced by various activators. […] (1 μg/ml), or anti-human CD3 mAb (1 μg/ml). The IL-2-derived peptides, pep1 or pep2, were also present in some wells. After 30 min at 37° C., non-adherent T cells were removed by washing, the remaining adherent cells were lysed, and the percentage of T cells that had adhered was determined. One experiment representative of four.
as §1
Inhibition by the Ile-Val-Leu and […](SEQ ID NO:1) peptides of T cell adhesion to FN induced by various pro-inflammatory mediators and by mAb specific for molecules expressed on T cells.

[6] = system: human T cells; test: PHA- or IL-2-mediated T cell proliferation; type: cell-based; conditions: peptide 1 to 100 pg/ml
Description: The in vitro bioassays (a) to (e) are well-known in the art. Thus, for example, assays (a), (b) and (e) may be carried out as described in the section Materials and Methods hereinafter. […] The IL-2-derived peptides or their derivatives are added to the culture wells (different amounts, 10 microliters) for the entire period of the assay. [^3H]-Thymidine is added to the microtiter 96 U-form well plates 18 h before harvesting the cultures on day 3 onto glass fiber filters and counted by liquid scintillation counter. Mean CPM and SD from quadriplicate culture are then presented.

[7] = system: human T cells; test: Secretion of TNF-α and IFN-γ from proliferating T cells; type: cell-based; conditions: peptide 1 to 100 pg/ml; not shown

Substance | IL-8 secretion Average O.D. [1] | IL-8 secretion % inhibition [1] [%] | concentration giving maximum inhibition of IL-2-induced T cell adhesion to FN [2] [pg/mL] | concentration giving maximum inhibition of IL-2-induced T cell adhesion to FN (molar) [2] [pM] | inhibition of adhesion of IL-2-activated T cells to FN [2] | anti-adhesive effect after removal of peptide prior to IL-2 activation [2] | inhibition of T cell adhesion to CO-IV, LN and FN [3] | inhibition of T cell migration toward IL-2 [4] | inhibition of T cell chemotaxis toward MIP-1β [4] | inhibition of 8A2-induced T cell adhesion to FN ([5]; peptide 0.1 pg/ml) | inhibition of PMA-induced T cell adhesion to FN ([5]; peptide 0.1 pg/ml) | inhibition of anti-CD3 mAb-induced T cell adhesion to FN ([5]; peptide 0.1 pg/ml) | inhibition of T cell adhesion to FN induced by various stimulators [5] | interference with PHA- or IL-2-mediated proliferative responses [6] | inhibition of secretion of TNF-α and IFN-γ from proliferating T cells [7]
Ile-Val-Leu [pep1] | 54 ± 19.1 | 104 | 1 | 2.91 | inhibited, in a dose-dependent manner | most of the anti-adhesive effects of the three peptides persevered | inhibit T cell adhesion to the three major cell-adhesive glycoproteins of the ECM | about 30% | 80% | did not inhibit | did not inhibit | did not inhibit | inhibited T cell adhesion to FN | none of them, at 1 to 100 pg/ml, interfered with either PHA- or IL-2-mediated proliferative responses | nor did these peptides inhibit the secretion of TNF-α and IFN-γ
Glu-Phe-Leu-Asn-Arg-Trp-Ile-Thr (EFLNRWIT; not fully specified (C-terminus); printed as Glu-Phe-Leu-Asn-Arg-Trp-Ile-Thr) [pep2] | 36 ± 4.2 | 108 | 1 | 0.92 | inhibited, in a dose-dependent manner | most of the anti-adhesive effects of the three peptides persevered | inhibit T cell adhesion to the three major cell-adhesive glycoproteins of the ECM | ~60% | only a limited inhibitory effect | did not inhibit | did not inhibit |  | inhibited T cell adhesion to FN | none of them, at 1 to 100 pg/ml, interfered with either PHA- or IL-2-mediated proliferative responses | nor did these peptides inhibit the secretion of TNF-α and IFN-γ

From patent US6906170B1 (Yeda Research and Development Co. Ltd., priority 1998, dated 2005)
